Measured values reported in patent US7935823B2 (priority 2007, dated 2011).

system: C57BL/6 mice; assay: Object recognition test, recognition of a new localization of an object; type: in vivo; conditions: not given
Text: Object recognition test as a method for research on the effects of some exemplary compounds on memory in mice.
The object recognition test is based on a spontaneous behavior of rats and mice to explore a novel object or a new localization of an object more often than a familiar one. This test was first developed for rats [Ennaceur A., Delacour J. A new one-trial test for neurobiological studies of memory in rats. 1: behavioral data. Behav. Brain Res. 1988; 31:47-59]. Thereafter, various researchers have shown that the test is also suitable for assessing memory performance in mice [e.g., Dodart J. C., Mathis C., Ungerer A. Scopolamine-induced deficits in a two-trial object recognition task in mice. NeuroReport 8 (1997), pp. 1173-1178]. The object recognition test is divided into two tests: a test of recognition of a new localization of an object that is used for research on spatial memory, and a test of recognition of a new object that is used for research on non-spatial memory.
Twenty (20) to twenty-two (22) month-old female mice (old mice) and four (4) to six (6) month-old male mice (young mice) of C57BL/6 strain were used. The animals were housed five per cage under a normal light cycle (12×12, light on at 8:00 AM) and with free access to water and food. The training box was made of white, opaque organic glass with dimensions of 48×38×30 cm. Two kinds of plastic items were used as objects for recognition: a white cylinder (d=4 cm, h=2.8 cm), and a black, three-edged prism (2.5×2.5×3.5 cm and h=3.4 cm). Care was taken to avoid olfactory stimuli by cleaning the objects and box carefully. Two (2) to three (3) min before the mice were placed into the box, the objects and the box were wiped with 85% ethanol. Animals were always placed in the middle of the training box.
Referring again to FIGS. 1A-1B and FIGS. 2A-2C, the mice were injected intraperitoneally with some of the various exemplary compounds shown in the figures, or with the vehicle (solvent) alone in the same volume, one hour before the recall trial.
On the first day of the experiment, the mice were handled in the research room for 20 to 30 min for acclimatization. Then, one by one, the mice were habituated to the training box by being placed into the box without any object for 20 min to explore the box, and were returned to their cages.
On the next day, the same mice were brought into a research room. After 20-30 min of acclimatization, each mouse was placed into an empty box for one minute. Then, the mouse was removed from the training box. Two identical objects (white cylinders) were placed approximately 5 inches distant from two adjacent corners of the box and immediately an animal was returned to the box. The time of exploring of each individual object was registered separately with the help of two electronic stop-watches (to within 0.1 sec). The behavior of each animal was observed through a mirror. Exploration was operationally defined as directing the nose to the object from a distance less than 2 cm, or touching the object with the nose. The duration of the training trial was 5, 10, 15 and 20 minutes.
[…] Testing was performed the same way as training, but one of the two familiar objects was changed to the new object (black prism).
When the recognition of a new localization of an object improved, the same experimental sequence was performed, except that only the localization of one of the familiar objects was changed in the testing session.
A significant variability of object exploration times between animals was measured. The ratio of object-exploration times was calculated as follows: each object-exploration time was divided by the sum of both of the object-exploration times during the same testing session, and expressed in percent: (tnew×100%)/(tfamiliar+tnew)
The data were analyzed using a one-way analysis of variance followed by a Student's t-test.

Row | Compound | effectiveness as memory stimulating agents relative to memantine
1 | CN1CCc2c(c3cc(Br)ccc3n2CCc2cncc(F)c2)C1 [compound 5] | approximately 25 times
2 | CN1CCc2c(c3cc(F)cc(F)c3n2CCc2cncc(F)c2)C1 [compound 8] | approximately 25 times

same assay, conditions: 0.02 mg/kg

Row | Compound | object exploration / discrimination ratio compared with control
3 | CN1CCc2c(c3cc(Br)ccc3n2CCc2cncc(F)c2)C1 [compound 5] | did not differ significantly from the control
4 | CN1CCc2c(c3cc(F)cc(F)c3n2CCc2cncc(F)c2)C1 [compound 8] | not different from that of the control mice

same assay, conditions: 0.1 mg/kg, tested 48 hours after training

Row | Compound | time exploring the object in a familiar localization | time exploring the object in a new localization
5 | CN1CCc2c(c3cc(Br)ccc3n2CCc2cncc(F)c2)C1 [compound 5] | approximately 43.0% | 57+/−4.6%
6 | CN1CCc2c(c3cc(F)cc(F)c3n2CCc2cncc(F)c2)C1 [compound 8] | 39.2+/−6.9% | 60.8+/−6.9%

system: mitochondrial permeability transition pores; assay: not given; conditions: MPP(+) and beta-amyloid fragment 25-35; cited from earlier work

Row | Compound | prevention of neurotoxin-induced opening of mitochondrial pores
7 | CC(=O)NCCc1c[nH]c2ccc(O)cc12 [N-acetylserotonin] | prevented
8 | Nc1c2c(nc3ccccc13)CCCC2 [tacrine] | prevented

target: T1, 5-HT6 Receptor (Homo sapiens, UniProt P50406); assay: Binding with 5-HT6 receptor (radioligand binding); conditions: compound concentration 10 uM; ligand 1.5 nM [3H]-LSD
T1 construct: expressed in transfected cells; host or cells: HeLa cells
Procedure: Binding with 5-HT6 Receptor.
The assay was conducted as follows [Monsma F. J., Jr, Shen Y., Ward R. P., Hamblin M. W., and Sibley D. R. Cloning and Expression of a novel serotonin receptor with high affinity for tricyclic psychotropic drugs. Mol. Pharmacol. 1993, 43: 320-327]: • Receptor source: human recombinant HeLa cells; • Ligand: 1.5 nM [3H]-lysergic acid diethylamide (LSD); • Vehicle: 1% DMSO; • Incubation time: 2 hours at 37 C; • Incubation buffer: 50 mM Tris-HCl, pH 7.4, 150 mM NaCl, 2 mM ascorbic acid, 0.001% BSA; • Compound concentration: 10 uM; • Non-specific ligand: 5 uM serotonin (5-HT); • Quantitation method: radioligand binding

T1 sequence (P50406 whole entry): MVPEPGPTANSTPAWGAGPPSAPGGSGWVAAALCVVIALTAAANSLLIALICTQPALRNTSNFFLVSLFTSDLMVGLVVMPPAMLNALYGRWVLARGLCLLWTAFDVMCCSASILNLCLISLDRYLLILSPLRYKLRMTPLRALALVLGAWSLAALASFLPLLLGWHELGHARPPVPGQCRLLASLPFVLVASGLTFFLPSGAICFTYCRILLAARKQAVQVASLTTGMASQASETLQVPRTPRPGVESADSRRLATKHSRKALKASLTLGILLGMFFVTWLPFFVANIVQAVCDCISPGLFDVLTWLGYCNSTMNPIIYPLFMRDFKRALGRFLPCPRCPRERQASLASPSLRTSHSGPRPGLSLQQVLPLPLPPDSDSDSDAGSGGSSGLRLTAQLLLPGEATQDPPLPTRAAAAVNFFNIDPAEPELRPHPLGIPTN

Row | Compound | inhibition at 10 µM
9 | CN1CCc2c(c3ccccc3n2CCc2ccc(C(F)(F)F)nc2)C1 [4-01] | 67%
10 | Cc1ccc2c(c1)c1c(n2CCc2ccc(C(F)(F)F)nc2)CCN(C)C1 [4-02] | 97%
11 | CN1CCc2c(c3cc(F)ccc3n2CCc2ccc(C(F)(F)F)nc2)C1 [4-03] | 72%
12 | CN1CCc2c(c3cc(Cl)ccc3n2CCc2ccc(C(F)(F)F)nc2)C1 [4-04] | 100%
13 | CN1CCc2c(c3cc(F)cc(F)c3n2CCc2ccc(C(F)(F)F)nc2)C1 [4-07] | 79%
14 | CCN1CCc2c(c3cc(Cl)ccc3n2CCc2ccc(C(F)(F)F)nc2)C1 [4-08] | 77%
15 | COc1ccc2c(c1)c1c(n2CCc2ccc(C(F)(F)F)nc2)CCN(C)C1 [I. 4-06] | 72%
16 | CN1CCc2c(c3ccccc3n2CCc2cncc(F)c2)C1 [compound 1] | 90%
17 | Cc1ccc2c(c1)c1c(n2CCc2cncc(F)c2)CCN(C)C1 [compound 2] | 102%
18 | CN1CCc2c(c3cc(F)ccc3n2CCc2cncc(F)c2)C1 [compound 3] | 99%
19 | CN1CCc2c(c3cc(Cl)ccc3n2CCc2cncc(F)c2)C1 [compound 4] | 103%
20 | CN1CCc2c(c3cc(Br)ccc3n2CCc2cncc(F)c2)C1 [compound 5] | 103%
21 | COc1ccc2c(c1)c1c(n2CCc2cncc(F)c2)CCN(C)C1 [compound 6] | 96%
22 | CN1CCc2c(c3cc(F)cc(F)c3n2CCc2cncc(F)c2)C1 [compound 8] | 91%
23 | CN1CCc2c(c3cc(C(F)(F)F)ccc3n2CCc2cncc(F)c2)C1 [compound 9] | 103%
24 | CN1CCc2c(c3cc(OC(F)(F)F)ccc3n2CCc2cncc(F)c2)C1 [compound 10] | 95%
25 | CCN1CCc2c(c3ccccc3n2CCc2cncc(F)c2)C1 [compound 11] | 77%
26 | CCN1CCc2c(c3cc(C)ccc3n2CCc2cncc(F)c2)C1 [compound 12] | 101%
27 | CCN1CCc2c(c3cc(F)ccc3n2CCc2cncc(F)c2)C1 [compound 14] | 88%
28 | CCN1CCc2c(c3cc(Cl)ccc3n2CCc2cncc(F)c2)C1 [compound 15] | 99%

target: butyrylcholine esterase (BuChE) (Homo sapiens, UniProt P06276); assay: Butyrylcholine esterase assay; type: biochemical; conditions: compound concentration 10 uM; human serum enzyme; 560 uM S-butyrylthiocholine
Procedure: Butyrylcholine Esterase Assay.
The assay was conducted as follows [Ellman G. L., Courtney K. D., Andres Jr. V., and Featherstone R. N. A new and rapid colorimetric determination of acetylcholinesterase activity.

butyrylcholine esterase (BuChE), sequence (P06276 29-602): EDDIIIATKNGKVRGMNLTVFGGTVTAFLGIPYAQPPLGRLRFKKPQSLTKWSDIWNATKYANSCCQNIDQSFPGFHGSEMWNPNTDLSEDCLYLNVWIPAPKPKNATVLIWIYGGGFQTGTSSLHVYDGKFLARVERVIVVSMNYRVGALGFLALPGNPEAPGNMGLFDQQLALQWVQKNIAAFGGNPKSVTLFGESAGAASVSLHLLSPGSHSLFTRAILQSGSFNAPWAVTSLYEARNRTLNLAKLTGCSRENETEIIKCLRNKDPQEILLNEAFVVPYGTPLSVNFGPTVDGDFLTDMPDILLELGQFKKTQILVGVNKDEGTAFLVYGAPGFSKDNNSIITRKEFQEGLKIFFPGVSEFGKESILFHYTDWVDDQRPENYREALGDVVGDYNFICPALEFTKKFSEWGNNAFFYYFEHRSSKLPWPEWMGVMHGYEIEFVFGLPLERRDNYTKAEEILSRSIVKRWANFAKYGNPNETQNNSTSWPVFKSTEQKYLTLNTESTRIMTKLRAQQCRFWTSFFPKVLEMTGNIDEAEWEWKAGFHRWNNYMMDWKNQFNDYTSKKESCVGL

Row | Compound | inhibition at 10 µM
29 | CN1CCc2c(c3ccccc3n2CCc2ccc(C(F)(F)F)nc2)C1 [4-01] | 65%
30 | Cc1ccc2c(c1)c1c(n2CCc2ccc(C(F)(F)F)nc2)CCN(C)C1 [4-02] | 95%
31 | CN1CCc2c(c3cc(F)ccc3n2CCc2ccc(C(F)(F)F)nc2)C1 [4-03] | 34%
32 | CN1CCc2c(c3cc(Cl)ccc3n2CCc2ccc(C(F)(F)F)nc2)C1 [4-04] | 97%
33 | CN1CCc2c(c3cc(F)cc(F)c3n2CCc2ccc(C(F)(F)F)nc2)C1 [4-07] | 20%
34 | CCN1CCc2c(c3cc(Cl)ccc3n2CCc2ccc(C(F)(F)F)nc2)C1 [4-08] | 100%
35 | COc1ccc2c(c1)c1c(n2CCc2ccc(C(F)(F)F)nc2)CCN(C)C1 [I. 4-06] | 99%
36 | CN1CCc2c(c3ccccc3n2CCc2cncc(F)c2)C1 [compound 1] | 75%
37 | Cc1ccc2c(c1)c1c(n2CCc2cncc(F)c2)CCN(C)C1 [compound 2] | 87%
38 | CN1CCc2c(c3cc(F)ccc3n2CCc2cncc(F)c2)C1 [compound 3] | 58%
39 | CN1CCc2c(c3cc(Cl)ccc3n2CCc2cncc(F)c2)C1 [compound 4] | 91%
40 | CN1CCc2c(c3cc(Br)ccc3n2CCc2cncc(F)c2)C1 [compound 5] | 96%
41 | COc1ccc2c(c1)c1c(n2CCc2cncc(F)c2)CCN(C)C1 [compound 6] | 99%
42 | CN1CCc2c(c3cc(F)cc(F)c3n2CCc2cncc(F)c2)C1 [compound 8] | 31%
43 | CN1CCc2c(c3cc(C(F)(F)F)ccc3n2CCc2cncc(F)c2)C1 [compound 9] | 95%
44 | CN1CCc2c(c3cc(OC(F)(F)F)ccc3n2CCc2cncc(F)c2)C1 [compound 10] | 100%
45 | CCN1CCc2c(c3ccccc3n2CCc2cncc(F)c2)C1 [compound 11] | 66%
46 | CCN1CCc2c(c3cc(C)ccc3n2CCc2cncc(F)c2)C1 [compound 12] | 89%
47 | CCN1CCc2c(c3cc(F)ccc3n2CCc2cncc(F)c2)C1 [compound 14] | 53%
48 | CCN1CCc2c(c3cc(Cl)ccc3n2CCc2cncc(F)c2)C1 [compound 15] | 94%

target: NMDA receptor; assay: not given; conditions: read-out: NMDA receptor inhibition constant (Ki); cited from earlier work

Row | Compound | Ki
49 | CC12CC3CC(C)(C1)CC(N)(C3)C2 [memantine] | 500 nM
